Data from ChEMBL document CHEMBL1147624, “Inhibitors of hepatitis C virus NS3.4A protease 2. Warhead SAR and optimization” (Bioorg Med Chem Lett, 2004).
pIC50, pKi: −log10 of the molar value. Where a SMILES comes first, the peptide text is derived from it. [ ]: non-standard residue; d: D form. The star is where a group is joined. Pyrazinecarbonyl = O=C(c1cnccn1)*; Hyp = O=C(O)[C@@H]1C[C@@H](O)CN1; Abu = CC[C@H](N)C(=O)O; Bn = c1ccc(C*)cc1

Legend:
NS3 = NS3 (Hepatitis C virus, UniProt A3EZJ3); test: Binding inhibition of hepatitis C virus NS3.4A protease 2 using p-nitroaniline assay (pNA); parameters: species or system Hepacivirus hominis
[1] = target: T1, Hepatitis C virus serine protease, NS3/NS4A (Hepatitis C virus, UniProt D2K2A8+A3EZI9); test: Binding inhibition of hepatitis C virus NS3.4A protease 2 using a reverse phase HPLC based assay; format: protein-complex assay, Hepacivirus hominis
[2] = target: T1, Hepatitis C virus serine protease, NS3/NS4A; test: Binding inhibition of hepatitis C virus NS3.4A protease 2 using p-nitroaniline assay (pNA); <0.2 (0.10); format: protein-complex assay, Hepacivirus hominis
Huh-7 [3] = test: Reduction of HCV RNA in 48 hr compound treated Huh 7 cells was determined by quantitative RT-PCR-based […] assay; format: functional; conditions: Homo sapiens, Huh-7, 48 h
Huh-7 [4] = test: Cytotoxicity of compound was determined by MTS-based cell viability assay in Huh 7 cells; format: functional; conditions: Homo sapiens
[5] = target: T1, Hepatitis C virus serine protease, NS3/NS4A; test: Binding inhibition of hepatitis C virus NS3.4A protease 2 using a reverse phase HPLC based assay; <0.2 (0.15); format: protein-complex assay, Hepacivirus hominis
[6] = target: T1, Hepatitis C virus serine protease, NS3/NS4A; test: Binding inhibition of hepatitis C virus NS3.4A protease 2 using p-nitroaniline assay (pNA); <0.2 (0.15); format: protein-complex assay, Hepacivirus hominis
[7] = target: T1, Hepatitis C virus serine protease, NS3/NS4A; test: Binding inhibition of hepatitis C virus NS3.4A protease 2 using p-nitroaniline assay (pNA); <0.2 (0.18); format: protein-complex assay, Hepacivirus hominis
[8] = target: T1, Hepatitis C virus serine protease, NS3/NS4A; test: Binding inhibition of hepatitis C virus NS3.4A protease 2 was determined; format: protein-complex assay, Hepacivirus hominis
[9] = target: T1, Hepatitis C virus serine protease, NS3/NS4A; test: Binding inhibition of hepatitis C virus NS3.4A protease 2 using p-nitroaniline assay (pNA); <0.2 (0.03); format: protein-complex assay, Hepacivirus hominis

NS3, sequence (A3EZJ3 whole entry): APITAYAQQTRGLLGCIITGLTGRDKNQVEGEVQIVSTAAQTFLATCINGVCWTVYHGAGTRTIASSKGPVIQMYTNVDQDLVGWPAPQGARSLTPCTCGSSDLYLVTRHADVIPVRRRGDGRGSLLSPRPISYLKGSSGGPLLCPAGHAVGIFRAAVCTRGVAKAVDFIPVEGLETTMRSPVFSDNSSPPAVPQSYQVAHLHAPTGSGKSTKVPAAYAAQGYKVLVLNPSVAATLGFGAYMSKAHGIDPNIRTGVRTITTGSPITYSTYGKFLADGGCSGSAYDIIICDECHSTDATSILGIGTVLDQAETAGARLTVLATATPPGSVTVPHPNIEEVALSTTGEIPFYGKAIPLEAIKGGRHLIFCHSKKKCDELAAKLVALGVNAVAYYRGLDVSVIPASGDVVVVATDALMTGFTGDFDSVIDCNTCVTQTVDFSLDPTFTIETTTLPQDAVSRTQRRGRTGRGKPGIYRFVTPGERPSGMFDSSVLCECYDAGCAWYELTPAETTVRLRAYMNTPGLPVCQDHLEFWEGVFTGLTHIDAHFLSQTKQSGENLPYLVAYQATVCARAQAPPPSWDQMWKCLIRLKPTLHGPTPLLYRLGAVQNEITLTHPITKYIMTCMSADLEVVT
T1 sequence (D2K2A8 whole entry): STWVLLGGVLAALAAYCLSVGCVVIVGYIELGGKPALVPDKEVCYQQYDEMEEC
T1 sequence (A3EZI9 whole entry): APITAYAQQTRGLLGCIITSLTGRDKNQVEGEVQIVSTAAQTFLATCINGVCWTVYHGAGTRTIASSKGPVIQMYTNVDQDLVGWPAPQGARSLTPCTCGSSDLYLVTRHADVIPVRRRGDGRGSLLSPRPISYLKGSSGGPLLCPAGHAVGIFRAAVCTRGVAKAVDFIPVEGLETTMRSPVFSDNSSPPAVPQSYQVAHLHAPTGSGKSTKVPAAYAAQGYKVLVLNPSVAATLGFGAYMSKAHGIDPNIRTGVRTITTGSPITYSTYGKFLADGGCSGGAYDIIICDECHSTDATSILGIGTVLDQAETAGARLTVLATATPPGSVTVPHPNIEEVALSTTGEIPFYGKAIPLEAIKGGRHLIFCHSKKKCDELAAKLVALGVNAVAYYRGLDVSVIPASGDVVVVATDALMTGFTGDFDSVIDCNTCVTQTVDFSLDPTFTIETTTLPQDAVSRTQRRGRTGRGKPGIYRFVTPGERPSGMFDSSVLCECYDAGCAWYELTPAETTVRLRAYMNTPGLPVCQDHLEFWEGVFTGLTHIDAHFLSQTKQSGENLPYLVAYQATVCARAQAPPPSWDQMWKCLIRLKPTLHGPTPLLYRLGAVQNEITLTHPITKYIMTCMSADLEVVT

| Compound | pKi (NS3) | pIC50 (Huh-7 [3]) | CC50 (Huh-7 [4]) | also measured |
| --- | --- | --- | --- | --- |
| CC[C@H](NC(=O)[C@@H]1C[C@@H](OCc2ccccc2)CN1C(=O)[C@@H](NC(=O)[C@@H](NC(=O)c1cnccn1)C(C)C)C(C)C)C(=O)C(=O)N1CCCC1 | 4.49 | – | – | – |
| CCC(NC(=O)[C@@H]1C[C@@H](OCc2ccccc2)CN1C(=O)[C@H](NC(=O)[C@H](NC(=O)c1cnccn1)C(C)C)C(C)C)C(=O)C(F)(F)C(F)(F)F (stereo partly drawn) | 4.76 | – | – | – |
| CCCC(NC(=O)[C@@H]1C[C@@H](OC(=O)N2CCc3ccccc3C2)CN1C(=O)[C@H](NC(=O)[C@H](NC(=O)c1cnccn1)C(C)C)C(C)C)C(=O)C(=O)N(CC(=O)O)c1ccccc1 (stereo partly drawn) | 5.79 | – | – | – |
| CC[C@@H](C=O)NC(=O)[C@@H]1C[C@@H](OCc2ccccc2)CN1C(=O)[C@@H](NC(=O)[C@@H](NC(=O)c1cnccn1)C(C)C)C(C)C (Pyrazinecarbonyl-VV[Hyp](Bn)[Abu]-aldehyde) | 4.80 | – | – | – |
| CCCC(NC(=O)[C@@H]1C[C@@H](OC(=O)N2CCc3ccccc3C2)CN1C(=O)[C@H](NC(=O)[C@H](NC(=O)c1cnccn1)C(C)C)C(C)C)C(=O)C(=O)NCC#N (stereo partly drawn) | 5.95 | – | – | – |
| CCCC(NC(=O)[C@@H]1C[C@@H](OC(=O)N2CCc3ccccc3C2)CN1C(=O)[C@H](NC(=O)[C@H](NC(=O)c1cnccn1)C(C)C)C(C)C)C(=O)C(=O)N(C)CC(=O)O (stereo partly drawn) | 5.28 | – | – | – |
| CCC(NC(=O)[C@@H]1C[C@@H](OCc2ccccc2)CN1C(=O)[C@H](NC(=O)[C@H](NC(=O)c1cnccn1)C(C)C)C(C)C)C(=O)CCl (stereo partly drawn) | < 4.30 | – | – | – |
| CCOC(=O)C(F)(F)C(=O)C(CC)NC(=O)C1CC(OCc2ccccc2)CN1C(=O)[C@H](NC(=O)[C@H](NC(=O)c1cnccn1)C(C)C)C(C)C (single isomer, unassigned) | < 4.30 | – | – | – |
| CCCC(NC(=O)[C@@H]1C[C@@H](OC(=O)N2CCc3ccccc3C2)CN1C(=O)[C@H](NC(=O)[C@H](NC(=O)c1cnccn1)C(C)C)C(C)C)C(=O)C(=O)N[C@@H](C)c1ccccc1 (stereo partly drawn) | – | < 6.51 | > 16 µM | pIC50 [1]: 6.66; pKi [2]: > 6.70 |
| CCC(NC(=O)[C@@H]1C[C@@H](OCc2ccccc2)CN1C(=O)[C@H](NC(=O)[C@H](NC(=O)c1cnccn1)C(C)C)C(C)C)C(=O)C(F)(F)F (stereo partly drawn) | < 4.30 | – | – | – |
| CCCC(NC(=O)[C@@H]1C[C@@H](OC(=O)N2CCc3ccccc3C2)CN1C(=O)[C@H](NC(=O)[C@H](NC(=O)c1cnccn1)C(C)C)C(C)C)C(=O)C(=O)NCC(=O)O (stereo partly drawn) | – | < 5.00 | > 100 µM | pIC50 [5]: 7.43; pKi [6]: > 6.70 |
| CCCC(NC(=O)[C@@H]1C[C@@H](OC(=O)N2CCc3ccccc3C2)CN1C(=O)[C@H](NC(=O)[C@H](NC(=O)c1cnccn1)C(C)C)C(C)C)C(=O)C(=O)NCc1ccccc1 (stereo partly drawn) | – | < 5.49 | > 30 µM | pIC50 [1]: 6.66; pKi [6]: > 6.70 |
| CCCC(NC(=O)[C@@H]1C[C@@H](OC(=O)N2CCc3ccccc3C2)CN1C(=O)[C@H](NC(=O)[C@H](NC(=O)c1cnccn1)C(C)C)C(C)C)C(=O)C(=O)NC(C)(C)C (stereo partly drawn) | 5.16 | – | – | – |
| CCCC(NC(=O)[C@@H]1C[C@@H](OC(=O)N2CCc3ccccc3C2)CN1C(=O)[C@H](NC(=O)[C@H](NC(=O)c1cnccn1)C(C)C)C(C)C)C(=O)C(=O)NC(C)C(=O)O (stereo partly drawn) | – | – | – | pIC50 [1]: 6.89; pKi [7]: 6.70 |
| CC[C@H](NC(=O)[C@@H]1C[C@@H](OCc2ccccc2)CN1C(=O)[C@@H](NC(=O)[C@@H](NC(=O)c1cnccn1)C(C)C)C(C)C)C(=O)C(=O)c1ccccc1 | 5.00 | – | – | – |
| CCCC(NC(=O)[C@@H]1C[C@@H](OC(=O)N2CCc3ccccc3C2)CN1C(=O)[C@H](NC(=O)[C@H](NC(=O)c1cnccn1)C(C)C)C(C)C)C(=O)C(=O)NC(CO)C(=O)O (stereo partly drawn) | 6.27 | – | – | – |
| CC[C@H](NC(=O)[C@@H]1C[C@@H](OCc2ccccc2)CN1C(=O)[C@@H](NC(=O)[C@@H](NC(=O)c1cnccn1)C(C)C)C(C)C)C(=O)C(=O)C(C)C | 5.57 | – | – | – |
| CC[C@H](NC(=O)[C@@H]1C[C@@H](OCc2ccccc2)CN1C(=O)[C@@H](NC(=O)[C@@H](NC(=O)c1cnccn1)C(C)C)C(C)C)C(=O)C(C)=O | 4.30 | – | – | – |
| CCCC(NC(=O)[C@@H]1CC(OC(=O)N2CCc3ccccc3C2)CN1C(=O)[C@H](NC(=O)[C@H](NC(=O)c1cnccn1)C(C)C)C(C)C)C(=O)C(=O)N1CCC1 (single isomer, unassigned) | 6.01 | < 4.99 | > 100 µM | – |

| Compound | pKi (NS3) | pIC50 (Huh-7 [3]) | CC50 (Huh-7 [4]) | also measured |
| --- | --- | --- | --- | --- |
| CC[C@@H](C=O)NC(=O)[C@@H]1CC(OC(=O)C2CCc3ccccc3C2)CN1C(=O)[C@@H](NC(=O)[C@@H](NC(=O)c1cnccn1)C(C)C)C(C)C (stereo partly drawn) | – | – | – | pKi [8]: 6.05 |
| CCCC(NC(=O)[C@@H]1C[C@@H](OC(=O)N2CCc3ccccc3C2)CN1C(=O)[C@H](NC(=O)[C@H](NC(=O)c1cnccn1)C(C)C)C(C)C)C(=O)C(=O)NC1CCC1 (stereo partly drawn) | 6.10 | < 4.99 | > 100 µM | – |
| CCCC(NC(=O)[C@@H]1C[C@@H](OC(=O)N2CCc3ccccc3C2)CN1C(=O)[C@H](NC(=O)[C@H](NC(=O)c1cnccn1)C(C)C)C(C)C)C(=O)C(=O)N[C@@H](C)C(=O)c1cccc2ccccc12 (stereo partly drawn) | – | – | – | pIC50 [1]: 6.12; pKi [7]: > 6.70 |
| CC[C@H](NC(=O)[C@@H]1C[C@@H](OCc2ccccc2)CN1C(=O)[C@@H](NC(=O)[C@@H](NC(=O)c1cnccn1)C(C)C)C(C)C)C(=O)O (Pyrazinecarbonyl-VV[Hyp](Bn)[Abu]-OH) | < 4.30 | – | – | – |
| CCCC(NC(=O)[C@@H]1CC(OC(=O)N2CCc3ccccc3C2)CN1C(=O)[C@H](NC(=O)[C@H](NC(=O)c1cnccn1)C(C)C)C(C)C)C(=O)C(=O)c1ccccc1 (single isomer, unassigned) | – | < 5.00 | > 100 µM | pIC50 [1]: 7.59; pKi [9]: > 6.70 |
| CCCC(NC(=O)[C@@H]1C[C@@H](OC(=O)N2CCc3ccccc3C2)CN1C(=O)[C@H](NC(=O)[C@H](NC(=O)c1cnccn1)C(C)C)C(C)C)C(=O)C(=O)NCCc1ccccc1 (stereo partly drawn) | 6.68 | < 5.00 | > 100 µM | pIC50 [1]: 6.28 |
| CCCC(NC(=O)[C@@H]1CC(OC(=O)N2CCc3ccccc3C2)CN1C(=O)[C@H](NC(=O)[C@H](NC(=O)c1cnccn1)C(C)C)C(C)C)C(=O)C(=O)N1C[C@@H]1c1ccccc1 (single isomer, unassigned) | 5.80 | – | – | – |
| CC[C@H](NC(=O)[C@@H]1C[C@@H](OCc2ccccc2)CN1C(=O)[C@@H](NC(=O)[C@@H](NC(=O)c1cnccn1)C(C)C)C(C)C)C(=O)C(=O)N[C@@H](C)c1ccccc1 [listing 1 of 2 here] | – | – | > 100 µM | – |
| CC[C@H](NC(=O)[C@@H]1C[C@@H](OCc2ccccc2)CN1C(=O)[C@@H](NC(=O)[C@@H](NC(=O)c1cnccn1)C(C)C)C(C)C)C(=O)C(=O)NCc1ccccc1 | 5.40 | – | – | – |
| CC[C@H](NC(=O)[C@@H]1C[C@@H](OCc2ccccc2)CN1C(=O)[C@@H](NC(=O)[C@@H](NC(=O)c1cnccn1)C(C)C)C(C)C)C(=O)C(=O)N[C@H](C)c1ccccc1 | 4.77 | – | – | – |
| CCCC(NC(=O)[C@@H]1C[C@@H](OC(=O)N2CCc3ccccc3C2)CN1C(=O)[C@H](NC(=O)[C@H](NC(=O)c1cnccn1)C(C)C)C(C)C)C(=O)C(=O)NC(C)C (stereo partly drawn) | 6.28 | < 5.00 | > 100 µM | – |
| CC[C@H](NC(=O)[C@@H]1C[C@@H](OCc2ccccc2)CN1C(=O)[C@@H](NC(=O)[C@@H](NC(=O)c1cnccn1)C(C)C)C(C)C)C(=O)C(=O)N[C@@H](C)c1ccccc1 [listing 2 of 2 here] | 6.04 | < 5.32 | – | – |
| CCCC(NC(=O)[C@@H]1C[C@@H](OC(=O)N2CCc3ccccc3C2)CN1C(=O)[C@H](NC(=O)[C@H](NC(=O)c1cnccn1)C(C)C)C(C)C)C(=O)C(=O)NCc1nnn[nH]1 (stereo partly drawn) | 6.54 | < 5.00 | > 100 µM | – |
| CC[C@H](NC(=O)[C@@H]1C[C@@H](OCc2ccccc2)CN1C(=O)[C@@H](NC(=O)[C@@H](NC(=O)c1cnccn1)C(C)C)C(C)C)C(=O)c1nnc(-c2ccccc2)o1 | 4.46 | – | – | – |
| CCCC(NC(=O)[C@@H]1C[C@@H](OC(=O)N2CCc3ccccc3C2)CN1C(=O)[C@H](NC(=O)[C@H](NC(=O)c1cnccn1)C(C)C)C(C)C)C(=O)C(=O)NCC(=N)N (stereo partly drawn) | 5.24 | – | – | – |
| CCCC(NC(=O)[C@@H]1C[C@@H](OC(=O)N2CCc3ccccc3C2)CN1C(=O)[C@H](NC(=O)[C@H](NC(=O)c1cnccn1)C(C)C)C(C)C)C(=O)C(=O)NCc1ccco1 (stereo partly drawn) | 5.33 | – | – | – |
| CCCC(NC(=O)[C@@H]1CC(OC(=O)N2CCc3ccccc3C2)CN1C(=O)[C@H](NC(=O)[C@H](NC(=O)c1cnccn1)C(C)C)C(C)C)C(=O)C(=O)Cc1ccccc1 (single isomer, unassigned) | 6.37 | < 5.00 | > 100 µM | – |
| CCCC(NC(=O)[C@@H]1C[C@@H](OC(=O)N2CCc3ccccc3C2)CN1C(=O)[C@H](NC(=O)[C@H](NC(=O)c1cnccn1)C(C)C)C(C)C)C(=O)C(=O)NC1CC1 (stereo partly drawn) | – | < 5.64 | > 100 µM | pIC50 [1]: 6.38; pKi [6]: > 6.66 |
